System: SW 982 tumor spheroid viability
Assay: Anticancer human tumor SW 982 cell line growth inhibition;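 also: spheroids exposed to compound for 7 days before readout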
Settings: spheroids with HUVEC and MSC; for IC50: curve of first compound; for viability, T/C: stronger effect = lower value
Outline: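 Complex spheroids of malignant cells with endothelial cells and mesenchymal stem cells; agents alone or combined, from near clinical Cmax (or 10 microM if unknown) down in half-log steps, 0.25% DMSO final.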

O=C(c1cc(Cc2n[nH]c(=O)c3ccccc23)ccc1F)N1CCN(C(=O)C2CC2)CC1 + Cn1nnc2c(C(N)=O)ncn2c1=O
IC50 (second compound 1 µM): 21.4 µM | IC50 (second compound 3.16 µM): 21.8 µM | IC50 (second compound 10 µM): 16.3 µM | IC50 (second compound 31.6 µM): 4.55 µM | IC50 (second compound 100 µM): 0.863 µM | viability, T/C (second compound 1 µM, first compound 0.0949 µM): 93.2% | viability, T/C (second compound 1 µM, first compound 0.3 µM): 95% | viability, T/C (second compound 1 µM, first compound 0.949 µM): 96.9% | viability, T/C (second compound 1 µM, first compound 3 µM): 78.3% | viability, T/C (second compound 1 µM, first compound 9.49 µM): 66.5% | viability, T/C (second compound 1 µM, first compound 30 µM): 43.5% | viability, T/C (second compound 3.16 µM, first compound 0.0949 µM): 93.7% | viability, T/C (second compound 3.16 µM, first compound 0.3 µM): 93.8% | viability, T/C (second compound 3.16 µM, first compound 0.949 µM): 81.3% | viability, T/C (second compound 3.16 µM, first compound 3 µM): 73.6% | viability, T/C (second compound 3.16 µM, first compound 9.49 µM): 59.7% | viability, T/C (second compound 3.16 µM, first compound 30 µM): 46.4% | viability, T/C (second compound 10 µM, first compound 0.0949 µM): 75.7% | viability, T/C (second compound 10 µM, first compound 0.3 µM): 70.7% | viability, T/C (second compound 10 µM, first compound 0.949 µM): 68% | viability, T/C (second compound 10 µM, first compound 3 µM): 67.6% | viability, T/C (second compound 10 µM, first compound 9.49 µM): 57.3% | viability, T/C (second compound 10 µM, first compound 30 µM): 41.7% | viability, T/C (second compound 31.6 µM, first compound 0.0949 µM): 66.6% | viability, T/C (second compound 31.6 µM, first compound 0.3 µM): 64.5% | viability, T/C (second compound 31.6 µM, first compound 0.949 µM): 54.3% | viability, T/C (second compound 31.6 µM, first compound 3 µM): 55.7% | viability, T/C (second compound 31.6 µM, first compound 9.49 µM): 45.2% | viability, T/C (second compound 31.6 µM, first compound 30 µM): 36% | viability, T/C (second compound 100 µM, first compound 0.0949 µM): 49.6% | viability, T/C (second compound 100 µM, first compound 0.3 µM): 54% | viability, T/C (second compound 100 µM, first compound 0.949 µM): 50.7% | viability, T/C (second compound 100 µM, first compound 3 µM): 41.6% | viability, T/C (second compound 100 µM, first compound 9.49 µM): 38.3% | viability, T/C (second compound 100 µM, first compound 30 µM): 33.2%

COc1cc(C)[nH]c(=O)c1CN1CCc2c(Cl)cc(C(OC)C3COC3)c(Cl)c2C1=O (stereo not given) + Cn1nnc2c(C(N)=O)ncn2c1=O
IC50 (second compound 1 µM): > 10 µM | IC50 (second compound 3.16 µM): > 10 µM | IC50 (second compound 10 µM): > 10 µM | IC50 (second compound 31.6 µM): > 10 µM | IC50 (second compound 100 µM): > 10 µM | viability, T/C (second compound 1 µM, first compound 0.0316 µM): 101% | viability, T/C (second compound 1 µM, first compound 0.1 µM): 103% | viability, T/C (second compound 1 µM, first compound 0.316 µM): 103% | viability, T/C (second compound 1 µM, first compound 1 µM): 113% | viability, T/C (second compound 1 µM, first compound 3.16 µM): 101% | viability, T/C (second compound 1 µM, first compound 10 µM): 99.7% | viability, T/C (second compound 3.16 µM, first compound 0.0316 µM): 94.3% | viability, T/C (second compound 3.16 µM, first compound 0.1 µM): 92.4% | viability, T/C (second compound 3.16 µM, first compound 0.316 µM): 96% | viability, T/C (second compound 3.16 µM, first compound 1 µM): 102% | viability, T/C (second compound 3.16 µM, first compound 3.16 µM): 100% | viability, T/C (second compound 3.16 µM, first compound 10 µM): 93.1% | viability, T/C (second compound 10 µM, first compound 0.0316 µM): 81.8% | viability, T/C (second compound 10 µM, first compound 0.1 µM): 83.5% | viability, T/C (second compound 10 µM, first compound 0.316 µM): 86.2% | viability, T/C (second compound 10 µM, first compound 1 µM): 88.3% | viability, T/C (second compound 10 µM, first compound 3.16 µM): 85.8% | viability, T/C (second compound 10 µM, first compound 10 µM): 78.3% | viability, T/C (second compound 31.6 µM, first compound 0.0316 µM): 71.1% | viability, T/C (second compound 31.6 µM, first compound 0.1 µM): 71.7% | viability, T/C (second compound 31.6 µM, first compound 0.316 µM): 70.4% | viability, T/C (second compound 31.6 µM, first compound 1 µM): 78.8% | viability, T/C (second compound 31.6 µM, first compound 3.16 µM): 70% | viability, T/C (second compound 31.6 µM, first compound 10 µM): 69.1% | viability, T/C (second compound 100 µM, first compound 0.0316 µM): 58.6% | viability, T/C (second compound 100 µM, first compound 0.1 µM): 62.3% | viability, T/C (second compound 100 µM, first compound 0.316 µM): 65% | viability, T/C (second compound 100 µM, first compound 1 µM): 64.3% | viability, T/C (second compound 100 µM, first compound 3.16 µM): 64.6% | viability, T/C (second compound 100 µM, first compound 10 µM): 61.9%

Source: PubChem BioAssay AID1845216 (Molecular Pharmacology Branch, DTP, NCI, 2023)
